These results are taken from patent publication US7517526B2, “Enhancement of antibody-cytokine fusion protein mediated immune responses by combined treatment with immunocytokine uptake enhancing agents” (Merck Patent GmbH, priority 2000, dated 2009).

As a reminder, the IC50 is the concentration needed to halve the response being measured.

Converted amounts (≈) assume the structure as drawn. Like-named read-outs stand apart in the source and are kept apart here.

One data set deals with LLC/KSA tumors. The data set is classed as in vivo. As for the experimental part: (§1) For tumor growth studies either LLC/KSA or CT26/KSA tumors were implanted subcutaneously on the backs of mice. For LLC/KSA studies, tumors were transplanted from several stock tumors that had been injected with a single cell suspension of 1×10^6 cells in 100 ul of PBS. After about two weeks, tumors were aseptically collected, passed through a sieve fitted with a 150 μm screen. Cells were then passed through a syringe and 23 gauge needle tow or three times, washed twice, and resuspended in PBS. A single cell suspension of 1×10^6 LLC/KSA cells in 100 ul of PBS was injected subcutaneously using a 30 ½ gauge needle on the backs of mice. For CT26/KSA studies, cells growing exponentially in culture were injected as a single cell suspension of 1×10^6 cells in 100 μl of PBS. After tumors had become established, about 2 weeks after implantation, dosing was initiated on Day 0. Tumors were measured with calipers in three dimensions twice weekly. Tumor volumes were calculated using the equation: Volume=½×4/3π(L/2×W/2×H) where L=length, W=width and H=height of the tumor. Animals were weighed and general health was monitored during the course of the study. When tumors became necrotic or if animals became moribund, the animals were euthanized by CO2 asphyxiation.
Data are presented in graphic form. Graphs depict individual or average tumor volumes (+/− SEM) during and after dosing. Data are also expressed as the percent of control of average tumor volumes from treated mice relative to vehicle treated mice. Student's t test was performed on the individual tumor volumes to determine significant differences.

The subject of data set [1] is multidrug resistant tumors. The following applies: cited from earlier work.
The conditions of data set [2]: cited from earlier work.
The target in the next data set is P-glycoprotein (Homo sapiens, UniProt P08183). The conditions noted are these: cited from earlier work.
P-glycoprotein, sequence (P08183 whole entry): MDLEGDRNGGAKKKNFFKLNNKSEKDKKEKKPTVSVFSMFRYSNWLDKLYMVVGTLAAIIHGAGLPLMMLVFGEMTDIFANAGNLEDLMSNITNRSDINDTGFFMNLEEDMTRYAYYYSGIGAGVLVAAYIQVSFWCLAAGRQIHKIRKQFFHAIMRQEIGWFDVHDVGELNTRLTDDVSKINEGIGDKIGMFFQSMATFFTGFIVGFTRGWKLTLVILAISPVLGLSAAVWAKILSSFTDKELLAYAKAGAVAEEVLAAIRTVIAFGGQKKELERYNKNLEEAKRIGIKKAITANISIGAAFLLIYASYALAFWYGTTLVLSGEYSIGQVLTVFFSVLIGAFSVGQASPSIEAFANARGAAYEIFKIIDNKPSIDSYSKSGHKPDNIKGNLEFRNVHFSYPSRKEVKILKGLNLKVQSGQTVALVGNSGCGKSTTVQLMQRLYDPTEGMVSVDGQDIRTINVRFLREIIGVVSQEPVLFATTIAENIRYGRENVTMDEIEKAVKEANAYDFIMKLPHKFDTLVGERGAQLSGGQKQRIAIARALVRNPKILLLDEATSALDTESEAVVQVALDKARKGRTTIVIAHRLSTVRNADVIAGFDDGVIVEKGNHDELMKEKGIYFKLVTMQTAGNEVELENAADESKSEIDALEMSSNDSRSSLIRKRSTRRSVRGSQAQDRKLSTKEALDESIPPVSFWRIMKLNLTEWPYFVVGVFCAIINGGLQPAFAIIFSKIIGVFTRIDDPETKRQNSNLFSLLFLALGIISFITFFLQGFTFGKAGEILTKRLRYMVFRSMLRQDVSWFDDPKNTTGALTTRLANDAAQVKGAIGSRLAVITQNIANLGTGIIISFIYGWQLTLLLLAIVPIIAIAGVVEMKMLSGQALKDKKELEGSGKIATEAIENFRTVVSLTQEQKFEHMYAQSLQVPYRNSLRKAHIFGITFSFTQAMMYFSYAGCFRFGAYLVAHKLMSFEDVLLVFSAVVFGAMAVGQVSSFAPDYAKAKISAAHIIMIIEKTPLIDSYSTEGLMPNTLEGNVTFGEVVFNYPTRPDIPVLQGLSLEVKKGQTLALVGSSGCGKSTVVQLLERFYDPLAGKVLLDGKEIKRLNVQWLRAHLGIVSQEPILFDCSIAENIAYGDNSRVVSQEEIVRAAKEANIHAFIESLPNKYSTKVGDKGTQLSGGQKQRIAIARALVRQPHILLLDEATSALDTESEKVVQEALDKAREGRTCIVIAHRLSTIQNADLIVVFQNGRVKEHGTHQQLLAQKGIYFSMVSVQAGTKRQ
For data set [3], the system named is 4T1 breast carcinoma cells. The conditions noted are these: FIG. 9; cyclophosphamide single dose 15 or 40 mg/kg; combination: huKS-IL2 15 ug/day for 5 days from three days later.
Experimental: 4T1 breast carcinoma cells were injected intravenously into immuno-competent mice to establish pulmonary metastases 3 days before treatment.
In data set [4] the test system is lung carcinoma subcutaneous tumors. Kind of data set: Tumor growth assay, established lung carcinoma subcutaneous tumors. The conditions noted are these: FIG. 9C; cyclophosphamide single dose 80 mg/kg; huKS-IL2 20 μg x 5 daily doses, 3 days after cyclophosphamide in combination; Day 20. Format: in vivo, mouse.
Data set [5] relates to breast carcinoma subcutaneous tumors. Description: Tumor growth assay, established breast carcinoma subcutaneous tumors. Format: in vivo, mouse. The conditions noted are these: FIG. 9B; cyclophosphamide single dose 80 mg/kg; huKS-IL2 30 μg x 5 daily doses, 3 days after cyclophosphamide in combination; Day 25.
The subject of a further data set is LLC/KSA cells. Kind of data set: Cytotoxicity assay (MTS, verified by crystal violet). Format: cell-based. The conditions noted are these: Mus musculus, 144 h; read-out: Paclitaxel IC50.
A further data set deals with 4T1/KSA cells. The data set is described as above. Format: cell-based. The following applies: Mus musculus, 144 h; read-out: Paclitaxel IC50.
Data set [6] relates to CT26/KSA colon carcinoma skin tumors. Description: CT26/KSA established skin tumor growth assay. The following applies: paclitaxel single dose 75 mg/kg. The data set is classed as in vivo, mouse. Here is the method:
as §1
Data are presented in graphic form. Graphs depict individual or average tumor volumes (+/− SEM) during and after dosing. […]

Data set [7] relates to 4T1/KSA breast carcinoma cells. Kind of data set: Experimental lung metastasis model with 4T1/KSA cells. The following applies: for reduction of average lung weights: FIG. 4, combination with KS-IL2 15 μg/dose x 3 days given 4 hr after paclitaxel. The data set is classed as in vivo, mouse. As for the experimental part:
For experimental lung metastases studies, a single cell suspension of 2.5×10^5 4T1/KSA cells in 100 μl of PBS was slowly injected using a 27½ gauge needle into the lateral tail vein on Day 0. About 3 weeks-after inoculation animals were sacrificed; their lungs were removed and weighed. […] Data are presented in graphic form. Graphs depict average tumor burdens (+/− SEM) at time of sacrifice. Tumor burden was determined by subtracting the weight of a normal lung from the weight of the experimental lungs.
For this experiment we used an experimental lung metastasis model induced with 4T1/KSA breast carcinoma cells. The doses of the drugs were selected to be sub-optimal by themselves so that any potential additive or synergistic activity could be observed.

Data set [8] deals with CT26/KSA liver metastases. The conditions noted are these: FIG. 6, combination: KS-IL2 7 ug for 5 days from one day later.
Experimental: For experimental hepatic metastases studies, mice were anesthetized using 80 mg/kg ketamine HCL (Fort Dodge Animal Health, Fort Dodge, Iowa) and 5 mg/kg xylazine (Bayer, Shawnee Mission, Kans.). A single cell suspension of 1×10^5 CT26/KSA cells in 100 μl of DMEM containing 25 mM HEPES (GIBCO) was injected using a 27½ gauge needle beneath the splenic capsule over a period of 60 seconds on Day 0. After another 2 minutes the splenic vessels were cauterized with a cautery unit (Roboz, Rockville, Md.) and the spleen removed. Animals were sutured using autoclips. Three weeks after inoculation the animals were sacrificed; their livers were removed and weighed. The livers were then fixed and stained in Bouin's solution (Sigma, St. Louis Mo.).
Graphs depict average tumor burdens (+/− SEM) at the time of sacrifice. Tumor burdens were determined by subtracting the weight of a normal liver from the weight of the experimental livers. Data are also expressed as the percent of control of the average tumor burden from treated mice relative to vehicle treated mice. Student's t test was performed on the individual tumor burdens to determine significant differences.
A second experiment was performed using the CT26/KSA model, this time testing the effect of combined therapy on established liver metastases and again using the 24 hr delay between paclitaxel administration and KS-IL2 treatment. We also compared the dose response of paclitaxel in the combination therapy. Mice were injected with 25, 50, or 75 mg/kg of paclitaxel on Day 5 after metastasis induction, alone or followed one day later with KS-IL2 (7 ug) for 5 days.
The subject of a further data set is CT26/KSA cells. Description: Cytotoxicity assay (MTS, verified by crystal violet). Format: cell-based. The following applies: Mus musculus, CT26, 144 h; read-out: Paclitaxel IC50.
Where [9] appears, read: comparative statement, Polizzi et al. 1999.
The mark [10] stands for this setting: FIG. 3, paclitaxel multiple doses 50 mg/kg every other day, combination: KS-IL2 one week following paclitaxel.

Experimental for CT26/KSA cells: (§2) The cell lines engineered for use in animal models (example 1) were tested for their sensitivity to taxane-induced cytotoxicity in cell culture in the presence or absence of the an IL-2 based immunocytokine consisting of the humanized form of the KS-1/4 antibody fused at the carboxyl terminus of the H chain to human IL-2 (huKS-huγ1-huIL2, hereafter abbreviated, KS-IL2). Cells were seeded at 1000 cell/well in 96 well flat-bottom plates and incubated for 24 hours at 37° C., 7% CO2. Paclitaxel, at 2-fold dilutions from 200 ng/ml to 3.125 ng/ml, KS-IL2, at 200 ng/ml and IL-2, at 33.3 ng/ml (the equivalent amount of IL-2 in KS-IL2) were added in duplicate to the cell culture plates and incubated for 6 days at 37° C., 7% CO2. The MTS calorimetric assay (Promega), a measure of cell viability based on the cellular conversion of a tetrazolium salt, was performed directly in the 96 well plates. After plates were read and recorded, viable adherent cells were stained with Crystal violet (Sigma, St. Louis, Mo). Crystal violet stained plates were used to verify MTS assay results. […] The IC50 is the concentration of drug that produced cytotoxicity at a level of 50% of control.
(§3) A cytotoxicity assay was performed with paclitaxel (3 to 200 ng/ml) alone or combined with KS-IL2 (200 ng/ml) or IL-2 (33.3 ng/ml, the equivalent amount of IL-2 in KS-IL2) against CT26/KSA, LLC/KSA and 4T1/KSA cells.
Experimental for LLC/KSA cells: as §2, §3

As to `N.N.O=C([O-])C1(C(=O)[O-])CCC1.[Pt+2]` [Carboplatin], the “effect on tumor growth / average tumor volume on Day 20” value in the data set with LLC/KSA tumors (FIG. 10, Carboplatin 75 mg/kg Day 0, KS-IL2 20 ug per day for 5 days, three days after Carboplatin in combination) is reported as “modest decrease”.
For the molecule `CC(=O)O[C@H]1C(=O)[C@@]2(C)[C@H]([C@H](OC(=O)c3ccccc3)[C@]34OC(=O)O[C@H]3[C@H](OC(=O)[C@H](O)[C@H](CC(C)C)NC(=O)OC(C)(C)C)C(C)=C1C4(C)C)[C@]1(OC(C)=O)CO[C@@H]1C[C@@H]2O` [IDN5109], the “activity against multidrug resistant tumors” value in data set [1] was “generally more active”. In addition, in data set [2] (setting [9]), the neurotoxic side effects entry was “less neurotoxic side effects” and the tolerated dose result was “higher tolerated dose”. Also, the oral bioavailability entry in data set [2] (in vivo, po) is on record as “orally bioavailable”. For the same molecule, the “substrate for P-glycoprotein” value at P-glycoprotein was “poor substrate”.
As to `O=P1(N(CCCl)CCCl)NCCCO1` (centres unmarked) [cyclophosphamide], the “lung metastasis tumor burden” value in data set [3] is “modest reduction”. In addition, the entries for the “reduction of average tumor volumes” value in [4] and in [5] were 27% and 69%, respectively.
For the molecule `CC(=O)O[C@H]1C(=O)[C@@]2(C)[C@H]([C@H](OC(=O)c3ccccc3)[C@]3(O)C[C@H](OC(=O)[C@H](O)[C@@H](NC(=O)c4ccccc4)c4ccccc4)C(C)=C1C3(C)C)[C@]1(OC(C)=O)CO[C@@H]1C[C@@H]2O` [paclitaxel], the IC50 in the data set on LLC/KSA cells is 0.006 µg/mL (≈ 0.00703 µM); with 4T1/KSA cells it was 0.016 µg/mL (≈ 0.0187 µM); in the data set with CT26/KSA cells, 0.027 µg/mL (≈ 0.0316 µM). Further, in the data set on LLC/KSA tumors (FIG. 2, paclitaxel single dose 80 mg/kg, KS-IL2 20 μg i.v. Days 0-4), the “effect on tumor growth, agent given alone” value is “No effect”. The average tumor volume with LLC/KSA tumors (setting [10]) is on record as 63 % of control. In the data set on LLC/KSA tumors (setting [10]), the “tumor growth delay (TGD)” value is recorded as 4 days. In addition, the “effect on tumor growth” value in [6] (Example 9, huKS-muγ2a-muIL12 5 μg per day for 5 days, starting 24 hr after paclitaxel in combination) is recorded as “very little effect”. Besides, in [6] (FIG. 5), the “effect on tumor growth, alone” value is “no effect”. The “weight loss, comparison of groups” value in data set [7] (25 mg/kg of paclitaxel given 3 times every other day) is “greatest weight loss”. For the same molecule, the “reduction of average lung weights” value is listed as 49% in data set [7] (paclitaxel multiple doses 25 mg/kg x 3 days) and 43% in [7] (paclitaxel single dose 75 mg/kg). Further, the values for the tumor burden in data set [8] (paclitaxel 25 mg/kg on Day 5), in [8] (paclitaxel 50 mg/kg on Day 5) and in data set [8] (paclitaxel 75 mg/kg on Day 5) were 49 % of control, 23 % of control and 10 % of control, respectively.
